# Read-outs that look alike come from different tables or passages of the source.
# Assays:
# [1] = Pharmacokinetic assay in mice, single oral administration; type: in vivo; settings: male, mouse, ICR mice, 10 mg/kg, plasma
# Experimental: The purpose of this trial is to study the pharmacokinetic behavior of some compounds of the present invention, and the administration method is: Single oral administration (PO) to ICR mice:
# ICR mice male N=3 original source: Shanghai Sippr-Bk Lab Animal Co., Ltd.
# The compounds were weighed and dissolved in 20% PG+10% Solutol HS15+70% pH 3 citrate buffer, respectively, shaken well and sonicated to prepare colorless clear solutions or suspensions. Nine mice were administered orally at a dose of 10 mg/kg after an overnight fast.
# About 90 μL of blood was collected via the submandibular vein per time point, heparin sodium anticoagulant was added, the sample was placed on ice after collection, and plasma was centrifuged within 1 hour (centrifugation conditions: 8,000 rpm, 6 minutes, 2-8° C.). The blood collection time points were 0, 0.25, 0.5, 1, 2, 4, 6, 8 and 24 h. The samples were stored in a refrigerator at −20° C.
# The plasma sample was 40 μL, 160 μL of ice-cold acetonitrile containing internal standard was added, vortexed for 3 minutes, and centrifuged at 11,000 rpm for 5 minutes. 100 μL of the supernatant was taken and added to 100 μL of water, 5 μL of the sample was taken and injected into LC/MS/MS for analysis (see the table below for the results).
# PK Results for Single Oral Administration (PO) of 10 mg/kg of Compounds to Mice
# [2] = Liver microsomal stability experiment; type: in vitro ADME; settings: pH 7.4; human liver microsomes, NADPH, 37° C., 0-45 min; read-out: Human Liver Microsome Stability Half-Life T1/2
# Experimental: Buffer solution A: 1.0 L of 0.1 M potassium dihydrogen phosphate buffer solution (containing 1.0 mM EDTA);
# Buffer solution B: 1.0 L of 0.1 M dipotassium phosphate buffer solution (containing 1.0 mM EDTA);
# Buffer solution C: Buffer solution A was added to 700 mL of buffer solution B. The addition was stopped when pH reached 7.4.
# The selected compounds of the examples and reference standards were dissolved in DMSO to prepare a stock solution of 10 mM.
# • 500 μM solution: 10 μL of 10 mM stock solution was added to 190 μL of ACN; • 1.5 μM dosing solution (dissolved in liver microsome solution, human liver microsomes were purchased from Xenotech): 18.75 μL of 20 mg/mL liver microsomes was added to 479.75 μL of buffer solution C, then 1.5 μL of 500 μM solution was added and mixed well with gentle shaking.
# NADPH was weighted, then an appropriate amount of buffer solution C was added to prepare a 6 mM of NADPH solution.
# • 1. 30 μL of 1.5 μM dosing solution was added to the wells set to different time points (0 min, 5 min, 15 min, 30 min and 45 min) on a 96-well plate. 2 replicates were made. • 2. Preparation of the 0-min sample: 135 μL of ACN (containing internal standard) was first added to the 0-min well, and 15 μL of 6 mM NADPH solution was added. • 3. A 96-well plate containing 1.5 μM of dosing solution and NADPH solution were pre-warmed in a 37° C. water bath for 5 minutes. • 4. Pre-warmed 15 μL of 6 mM NADPH solution was added to the wells set to 5 min, 15 min, 30 min and 45 min, the reaction was started and the timing was started. • 5. […] The solution was vortexed for 10 minutes, and the sample was centrifuged on a centrifuge at 5594×g for 15 minutes. • 6. 50 μL of supernatant was taken from the centrifuged sample, transferred to a 96-well sample plate that has been added with 50 μL of water, mixed, and finally sent to LC-MS/MS for analysis. The half-life was calculated based on the test results.
# [3] = tested on: HCT 116 MTAP knockout cells; test: Human colon cancer HCT116 cell proliferation inhibition test (MTAP knockout cells, CellTiter-Glo, 6 days); type: cell-based
# Experimental: (§1) • 1. HCT 116 MTAP knockout and MTAP wild-type cells were plated in 96-well flat bottom 5 plates, and cultured overnight with McCoy's 5A medium containing […]+1% penicillin-streptomycin at 37° C. and 5% CO2. • 2. On the next day, the compound was dissolved with DMSO, diluted with DMSO and medium successively and transferred to the cell plate. The final concentration of the compound was 10 μM, the compound was diluted 4 times, with 9 concentration gradients, and DMSO control was added. • 3. Cells that have not been treated with the compound were removed. CellTiter-Glo Luminescent Cell Viability Assay (Promega) was used to detect cell viability, the operation was performed with reference to the package insert of the kit, and then the cell plate was placed on EnVision Multilabel Reader to detect the cold light signal. • 4. Meanwhile, the cell plate treated with the compound was cultured at 37° C. and 5% CO2 for 6 consecutive days. • 5. Then, CellTiter-Glo was also used to detect cell viability. • 6. Finally, the four-parameter dose-response curve module of GraphPad Prism v 9.2.0 software was used to plot the dose-response curve and calculate the IC50 for proliferation inhibition (unit: nM).
# [4] = tested on: HCT 116 MTAP wild-type cells; test: Human colon cancer HCT116 cell proliferation inhibition test (MTAP wild-type cells, CellTiter-Glo, 6 days); type: cell-based; settings: HCT-116, 144 h
# Experimental: as §1
Compound,AUC(0-t) [1] [ng·h/mL],Cmax [1] [ng/mL],half-life [1] [h],half-life at 1 µM [2] [h],"IC50 ([3]; Homo sapiens, HCT-116, 144 h) [nM]",IC50 [4] [nM],IC50 [3] [nM]
"Cn1ncc(-c2cc(C#N)c3c(=O)[nH]nc(CN)c3c2)c1-c1c(F)c(Cl)cc(OC2CC2)c1C#N [Example 6, 1-(aminomethyl)-7-(5-(3-chloro-6-cyano-5-cyclopropoxy-2-fluorophenyl)-1-methyl-1H-pyrazol-4-yl)-4-oxo-3,4-dihydrophthalazine-5-carbonitrile]",2900,973,5.1,2.05,70,–,–
"Cn1ncc(-c2cc(C#N)c3c(=O)[nH]nc(CN)c3c2)c1-c1c(F)cc2ccccc2c1C#N [Example 1, 1-(aminomethyl)-7-(5-(1-cyano-3-fluoronaphthalen-2-yl)-1-methyl-1H-pyrazol-4-yl)-4-oxo-3,4-dihydrophthalazine-5-carbonitrile]",2530,1750,1.2,3.37,–,2360,29
"Cn1ncc(-c2ccc3c(=O)[nH]nc(CN)c3c2)c1-c1c(F)c(Cl)cc(OC2CC2)c1C#N [MRTX-1979, reference compound]",973,266,1.3,0.333,53,1610,–
"Cn1ncc(-c2ccc3c(=O)[nH]nc(CN)c3c2)c1-c1c(F)c(Cl)cc(N2CCCC2)c1C#N [Example 28, 2-(4-(4-(aminomethyl)-1-oxo-1,2-dihydrophthalazin-6-yl)-1-methyl-1H-pyrazol-5-yl)-4-chloro-3-fluoro-6-(pyrrolidin-1-yl)benzonitrile]",2980,810,5,0.45,17,761,–
"C#Cc1cc(-c2cnn(C)c2-c2c(F)cc3ccccc3c2C#N)cc2c(CN)n[nH]c(=O)c12 [Example 2, 2-(4-(4-(aminomethyl)-8-ethynyl-1-oxo-1,2-dihydrophthalazin-6-yl)-1-methyl-1H-pyrazol-5-yl)-3-fluoro-1-naphthalenenitrile]",1440,378,4,0.717,9,–,–
"Cn1ncc(-c2cc(C3CC3)c3c(=O)[nH]nc(CN)c3c2)c1-c1c(F)c(Cl)cc(OC2CC2)c1C#N [Example 8, 2-(4-(4-(aminomethyl)-8-cyclopropyl-1-oxo-1,2-dihydrophthalazin-6-yl)-1-methyl-1H-pyrazol-5-yl)-4-chloro-6-cyclopropoxy-3-fluorobenzonitrile]",2710,576,3.2,0.867,18,–,–
"Cn1ncc(-c2cc(C#N)c3c(=O)[nH]nc(CN)c3c2)c1-c1c(F)c(Cl)cc(N2CCCC2)c1C#N [Example 9, 1-(aminomethyl)-7-(5-(3-chloro-6-cyano-2-fluoro-5-(pyrrolidin-1-yl)phenyl)-1-methyl-1H-pyrazol-4-yl)-4-oxo-3,4-dihydrophthalazine-5-carbonitrile]",2230,844,6.9,0.633,58,–,–
